Where “and” joins values, the source holds several entries; their conditions need not be identical. Identical values can stand only once. Like-named read-outs stand apart in the source and are kept apart here.
What was measured:
[1] = Safety and tolerability (TEAEs, DLTs, irAEs; NCI CTCAE v5.0), phase Ib POD1UM-104; settings: in vivo
Method: This was a phase Ib, open‐label, multicenter study (POD1UM‐104 [NCT03910530]). The study was conducted in 2 parts. In Part 1, patients received single‐agent retifanlimab or escalating doses of single‐agent INCB001158 to confirm the RP2D of each agent. Single‐agent dosing was performed to comply with local regulations. In Part 2, patients received the combination of retifanlimab and INCB001158 at their respective RP2D determined in Part 1, to further explore safety and preliminary evidence of clinical activity. Treatment cycles in Part 1 and Part 2 were 28 days, and patients could receive treatment for up to 2 years, or until disease progression, unacceptable toxicity, death, or patient withdrawal.
In Part 1, 6 patients received retifanlimab 500 mg every 4 weeks (Q4W), given as an i.v. infusion over 60 min; this dose was based on the RP2D determined from global studies. The starting dose of INCB001158 was 75 mg taken orally twice daily (BID). Dose escalation of INCB001158 followed a standard 3 + 3 design; if 75 mg BID was deemed to be tolerable in at least 3 patients, a 100‐mg BID dose level cohort comprising at least 3 patients would be opened.
DLTs were assessed by the investigator according to the National Cancer Institute (NCI) Common Terminology Criteria for Adverse Events (CTCAE) v5.0 criteria (Table S1).
The primary endpoints of the study were safety, tolerability, DLTs, and RP2D of single‐agent retifanlimab, INCB001158, and the combination. Adverse events (AEs) were graded by NCI CTCAE v5.0, and immune‐related adverse events (irAEs) were monitored as AEs of special interest. Physical examinations, monitoring of vital signs, electrocardiograms, and laboratory assessments were conducted throughout the study.
(§1) Safety and efficacy analyses were conducted in the full analysis set, which comprised all enrolled patients who received at least 1 dose of the study drug.
(§2) Safety data were summarized using descriptive statistics. PK parameters were summarized by study part, treatment regimen, cohort, dose levels, and/or visit. ORR and DCR were reported with their exact 95% confidence intervals (CIs); DOR was based on the Kaplan–Meier estimate of the distribution function, and the estimated median along with 95% CI was reported. Statistical analyses were performed using SAS® software v9.4 or later (SAS Institute Inc., Cary, NC, USA).

advanced solid tumors = test: Clinical activity by investigator per RECIST v1.1 (ORR, DCR, DOR); type: in vivo, Japanese patients; settings: n = 6 per group
Method: Preliminary clinical activity of single‐agent retifanlimab and INCB001158, and the combination, was an additional secondary endpoint. Diagnostic imaging was performed by computed tomography scan every 8 ± 1 weeks. Clinical activity was assessed by measuring overall response rate (ORR), defined as the percentage of patients experiencing a complete or partial response (CR or PR) as determined by the investigator according to Response Evaluation Criteria in Solid Tumors (RECIST) v1.1; disease control rate (DCR), defined as the percentage of patients maintaining either an objective response or stable disease (SD) for at least 12 weeks per RECIST v1.1; and duration of response (DOR), defined as the time from first observed response until onset of progressive disease (PD) as determined by the investigator according to RECIST v1.1 or death from any cause.
as §1, §2

arginase [2] = test: Pharmacodynamics: plasma arginine levels; type: in vivo, Japanese patients; settings: change from baseline
Method: Pharmacodynamics of INCB001158 alone or in combination were assessed as an exploratory objective. Urine was collected at regular intervals from patients in the INCB001158 monotherapy and combination groups to assess urinary orotic acid levels and evaluate whether INCB001158 inhibits the urea cycle. Plasma samples from patients in these groups were also assessed for ammonia, arginine, and ornithine levels.

[3] = tested on: advanced/metastatic solid tumours; settings: cited from earlier work
T‐cell proliferation = tested on: T‐cell proliferation; parameters: method as in PMID 29254508; settings: preclinical; cited from earlier work
tumor growth = tested on: tumor growth; parameters: method as in PMID 29254508; settings: preclinical; cited from earlier work
arginase [4] = tested on: arginase; parameters: method as in earlier work; settings: phase I/II studies; cited from earlier work
[5] = INCB001158 monotherapy, 33 patients with microsatellite‐stable metastatic colorectal cancer
[6] = in combination with gemcitabine/cisplatin, phase I/II, advanced biliary tract cancer
[7] = in combination with pembrolizumab, 43 patients with microsatellite‐stable colorectal cancer

## C[C@H](N)C(=O)N1C[C@H](CCCB(O)O)[C@](N)(C(=O)O)C1 [INCB001158]
[1]; human
  Serious TEAEs (terms): grade 2 inguinal hernia (n = 1)
  TEAE: ALT increased: 0 n (%)
  TEAE: AST increased: 0 n (%)
  TEAE: Amylase increased: 0 n (%)
  TEAE: Anemia: 1 (16.7) n (%)
  TEAE: Blood creatinine increased: 0 n (%)
  TEAE: Diarrhea: 1 (16.7) n (%)
  TEAE: Nausea: 0 n (%)
  TEAE: Pruritus: 0 n (%)
  TEAE: Pyrexia: 0 n (%)
  TEAE: Rash: 0 n (%)
  TRAEs reported (terms): diarrhea (n = 1) and anemia and hyperbilirubinemia (n = 1)
  Treatment discontinuation because of a TEAE: 0 n (%)
[1]
  Grade 3 AEs reported but not occurring during the treatment window: anemia
Advanced solid tumors; RECIST v1.1, investigator
  Best overall response: Complete response: 0 n (%)
  Best overall response: Partial response: 0 n (%)
  Best overall response: Progressive disease: 3 (50.0) n (%)
  Best overall response: Stable disease: 3 n (%) and 3 (50.0) n (%)
  Objective response rate: 0 [0–45.9] n (%) [95% CI]
Advanced solid tumors; RECIST v1.1, 95% CI, 11.8–88.2
  DCR: 50%
Arginase [2]
  Plasma arginine levels: Immediate and consistent increases
[3]; [5]
  DCR: 27%
  Number of PRs: 1
[3]; [6]
  ORR: 24%
  Patients with SD: 42%
[3]; [7]
  DCR: 30%
  Number of PRs: 3
T‐cell proliferation
  T‐cell proliferation in the presence of inhibitory granulocytes: restored T‐cell proliferation
Tumor growth
  Antitumor activity in mouse models: demonstrated antitumor activity
  Tumor growth when combined with ICB: synergistically inhibited tumor growth
Arginase [4]
  Plasma arginine levels: increase in plasma arginine levels

From PMC11036078, “PD‐1 inhibition with retifanlimab and/or arginase inhibition with INCB001158 in Japanese patients with solid tumors: A phase I study” (Cancer Medicine, 2024)
